Reference: ChEMBL document CHEMBL1201862, “PubChem BioAssay data set” (2004)
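Briefly, cells in 96-well plates were exposed to five compound concentrations for 48 h, and endpoints were estimated by linear interpolation. GI50 is the concentration that inhibits growth by half.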 Active and inactive are the calls of the source. Cut-off read from the data, not from the text of the source: active = GI50 up to about 1.1 µM and inactive = higher.

Legend:
Assay in all cases: inhibition of tumour cell growth, NCI panel, 48 h
LOX IMVI = system: LOX IMVI
NCI/ADR-RES = system: NCI/ADR-RES
CCRF-CEM = system: CCRF-CEM
COLO 205 = system: COLO 205
Malme-3M = system: Malme-3M
HOP-62 = system: HOP-62
EKVX = system: EKVX
A549 = system: A549
SK-MEL-5 = system: SK-MEL-5
RXF 393 = system: RXF 393
MCF7 = system: MCF7
NCI-H23 = system: NCI-H23
SF-268 = system: SF-268
SNB-75 = system: SNB-75
M14 = system: M14
NCI-H460 = system: NCI-H460
SF-539 = system: SF-539
A498 = system: A498
SK-MEL-28 = system: SK-MEL-28
U-251 = system: U-251

SMILES	GI50 (LOX IMVI)	GI50 (NCI/ADR-RES)	GI50 (CCRF-CEM)	GI50 (COLO 205)	GI50 (Malme-3M)	GI50 (HOP-62)	GI50 (EKVX)	GI50 (A549)	GI50 (SK-MEL-5)	GI50 (RXF 393)	GI50 (MCF7)	GI50 (NCI-H23)	GI50 (SF-268)	GI50 (SNB-75)	GI50 (M14)	GI50 (NCI-H460)	GI50 (SF-539)	GI50 (A498)	GI50 (SK-MEL-28)	GI50 (U-251)
COC(=O)c1cc(/C=C/C(=O)Cc2ccccc2)cn1S(=O)(=O)c1ccccc1	> 100 µM (inactive)	> 100 µM (inactive)	> 100 µM (inactive)	> 100 µM (inactive)	> 100 µM (inactive)	> 100 µM (inactive)	> 100 µM (inactive)	> 100 µM (inactive)	> 100 µM (inactive)	> 100 µM (inactive)	> 100 µM (inactive)	> 100 µM (inactive)	> 100 µM (inactive)	> 100 µM (inactive)	> 100 µM (inactive)	> 100 µM (inactive)	> 100 µM (inactive)	–	–	–
C[C@@H]1S[C@H](c2c(Cl)cccc2Cl)N2Cc3ccccc3N=C12	> 100 µM (inactive)	–	> 100 µM (inactive)	> 100 µM (inactive)	–	> 100 µM (inactive)	42.9 µM (inactive)	> 100 µM (inactive)	> 100 µM (inactive)	> 100 µM (inactive)	> 100 µM (inactive)	> 100 µM (inactive)	> 100 µM (inactive)	> 100 µM (inactive)	> 100 µM (inactive)	> 100 µM (inactive)	> 100 µM (inactive)	> 100 µM (inactive)	> 100 µM (inactive)	> 100 µM (inactive)
C/C(=N\Nc1nc2ccccc2[nH]1)c1ccc2ccccc2n1	2.11 µM (inactive)	1.85 µM (inactive)	1.05 µM (active)	3.15 µM (inactive)	2.4 µM (inactive)	2.78 µM (inactive)	0.678 µM (active)	2.52 µM (inactive)	1.46 µM (inactive)	2.73 µM (inactive)	2.17 µM (inactive)	3.89 µM (inactive)	1.97 µM (inactive)	2.19 µM (inactive)	1.24 µM (inactive)	2.25 µM (inactive)	3.27 µM (inactive)	–	3.79 µM (inactive)	1.81 µM (inactive)
CP(C)(=S)P(C)(C)=S	4.37 µM (inactive)	> 100 µM (inactive)	> 100 µM (inactive)	> 100 µM (inactive)	> 100 µM (inactive)	> 100 µM (inactive)	> 100 µM (inactive)	> 100 µM (inactive)	> 100 µM (inactive)	> 100 µM (inactive)	> 100 µM (inactive)	> 100 µM (inactive)	> 100 µM (inactive)	> 100 µM (inactive)	> 100 µM (inactive)	> 100 µM (inactive)	> 100 µM (inactive)	–	> 100 µM (inactive)	> 100 µM (inactive)
N#C/C(=C/C=C/c1ccco1)C(N)=O	> 10 µM (inactive)	> 10 µM (inactive)	–	> 10 µM (inactive)	> 10 µM (inactive)	> 10 µM (inactive)	> 10 µM (inactive)	–	> 10 µM (inactive)	> 10 µM (inactive)	> 10 µM (inactive)	–	> 10 µM (inactive)	> 10 µM (inactive)	> 10 µM (inactive)	> 10 µM (inactive)	> 10 µM (inactive)	–	> 10 µM (inactive)	> 10 µM (inactive)
NC1=NCC(CN2CCCCC2)O1 (stereo not drawn)	> 100 µM (inactive)	> 100 µM (inactive)	> 100 µM (inactive)	> 100 µM (inactive)	> 100 µM (inactive)	> 100 µM (inactive)	> 100 µM (inactive)	> 100 µM (inactive)	> 100 µM (inactive)	> 100 µM (inactive)	> 100 µM (inactive)	–	> 100 µM (inactive)	> 100 µM (inactive)	> 100 µM (inactive)	> 100 µM (inactive)	> 100 µM (inactive)	–	> 100 µM (inactive)	> 100 µM (inactive)
CC1CC(=O)N2CCCNC2=C1C#N (stereo not drawn)	> 100 µM (inactive)	> 100 µM (inactive)	> 100 µM (inactive)	> 100 µM (inactive)	> 100 µM (inactive)	> 100 µM (inactive)	> 100 µM (inactive)	> 100 µM (inactive)	> 100 µM (inactive)	> 100 µM (inactive)	> 100 µM (inactive)	> 100 µM (inactive)	> 100 µM (inactive)	> 100 µM (inactive)	> 100 µM (inactive)	> 100 µM (inactive)	> 100 µM (inactive)	–	> 100 µM (inactive)	> 100 µM (inactive)
O=c1ccc(=O)c2c(=O)c3ccccc3c(=O)c1=2	42.6 µM (inactive)	–	33 µM (inactive)	99.3 µM (inactive)	26.5 µM (inactive)	36.6 µM (inactive)	28.7 µM (inactive)	37.4 µM (inactive)	15.7 µM (inactive)	48.3 µM (inactive)	–	70.3 µM (inactive)	35.6 µM (inactive)	> 100 µM (inactive)	46 µM (inactive)	29.3 µM (inactive)	26 µM (inactive)	> 100 µM (inactive)	> 100 µM (inactive)	43.6 µM (inactive)
CC(C)(C)/N=C/N1C=Cc2nc3ccccc3cc2C1	26.7 µM (inactive)	–	> 100 µM (inactive)	36.9 µM (inactive)	> 100 µM (inactive)	> 100 µM (inactive)	> 100 µM (inactive)	> 100 µM (inactive)	> 100 µM (inactive)	> 100 µM (inactive)	–	> 100 µM (inactive)	> 100 µM (inactive)	> 100 µM (inactive)	> 100 µM (inactive)	32.6 µM (inactive)	> 100 µM (inactive)	> 100 µM (inactive)	> 100 µM (inactive)	> 100 µM (inactive)
CC1=CC2CC(C)C1(C)CCc1ccoc12 (stereo not drawn)	> 100 µM (inactive)	–	> 100 µM (inactive)	> 100 µM (inactive)	> 100 µM (inactive)	> 100 µM (inactive)	> 100 µM (inactive)	> 100 µM (inactive)	> 100 µM (inactive)	> 100 µM (inactive)	–	> 100 µM (inactive)	> 100 µM (inactive)	> 100 µM (inactive)	> 100 µM (inactive)	> 100 µM (inactive)	> 100 µM (inactive)	> 100 µM (inactive)	> 100 µM (inactive)	> 100 µM (inactive)
CC1CC(c2ccc(Cl)c(Cl)c2)=Nc2ccccc2S1 (stereo not drawn)	> 100 µM (inactive)	–	41.9 µM (inactive)	> 100 µM (inactive)	> 100 µM (inactive)	> 100 µM (inactive)	> 100 µM (inactive)	> 100 µM (inactive)	> 100 µM (inactive)	> 100 µM (inactive)	–	> 100 µM (inactive)	> 100 µM (inactive)	> 100 µM (inactive)	> 100 µM (inactive)	> 100 µM (inactive)	> 100 µM (inactive)	> 100 µM (inactive)	> 100 µM (inactive)	> 100 µM (inactive)
O=C1OC(c2ccccc2)=N/C1=C/NC(Cc1c[nH]c2ccccc12)C(=O)O (stereo not drawn)	> 100 µM (inactive)	–	> 100 µM (inactive)	> 100 µM (inactive)	> 100 µM (inactive)	> 100 µM (inactive)	> 100 µM (inactive)	> 100 µM (inactive)	> 100 µM (inactive)	> 100 µM (inactive)	–	> 100 µM (inactive)	> 100 µM (inactive)	69.7 µM (inactive)	> 100 µM (inactive)	> 100 µM (inactive)	> 100 µM (inactive)	> 100 µM (inactive)	> 100 µM (inactive)	> 100 µM (inactive)
CN1c2ccccc2N(C)C23N(C)c4ccccc4N(C)C12N(C)c1ccccc1N3C (stereo not drawn)	> 100 µM (inactive)	–	> 100 µM (inactive)	> 100 µM (inactive)	> 100 µM (inactive)	87.1 µM (inactive)	> 100 µM (inactive)	> 100 µM (inactive)	> 100 µM (inactive)	> 100 µM (inactive)	–	> 100 µM (inactive)	> 100 µM (inactive)	35.6 µM (inactive)	> 100 µM (inactive)	> 100 µM (inactive)	> 100 µM (inactive)	> 100 µM (inactive)	> 100 µM (inactive)	> 100 µM (inactive)
COc1ccc2[nH]c3c(c2c1)[C@H]1CCC(C(C)(C)C)C[C@H]1[C@H]1C(=O)N(c2ccccc2)C(=O)[C@@H]31 (stereo partly drawn)	20.7 µM (inactive)	–	18.9 µM (inactive)	11.4 µM (inactive)	15.8 µM (inactive)	11.1 µM (inactive)	32.7 µM (inactive)	12.7 µM (inactive)	> 47.6 µM (inactive)	9.42 µM (inactive)	–	12.1 µM (inactive)	13.1 µM (inactive)	5.97 µM (inactive)	8.22 µM (inactive)	6.9 µM (inactive)	5.4 µM (inactive)	14.7 µM (inactive)	44.3 µM (inactive)	6.14 µM (inactive)
COC1C(=O)CCC2(CO2)C1(O)C1(C)OC1CC=C(C)C (stereo not drawn)	5.21 µM (inactive)	–	–	16.6 µM (inactive)	–	14.7 µM (inactive)	93.5 µM (inactive)	10.6 µM (inactive)	14.7 µM (inactive)	22.9 µM (inactive)	11.8 µM (inactive)	46.7 µM (inactive)	33.5 µM (inactive)	69.8 µM (inactive)	11.1 µM (inactive)	27.3 µM (inactive)	–	26.3 µM (inactive)	17.3 µM (inactive)	13.9 µM (inactive)
